According to patent US11634447B2 (priority 2012, dated 2023):

These molecules were tested on bacterial strain LF82 binding to the glycoprotein BSA-(Mannose)3 (assay: Bacterial Binding Assay (BBA)). Settings: read-out: Bacterial Binding Assay IC50, LF82/Luciferase strain binding to BSA-(Man)3 coated plates, luminescence.
Assay type: cell-based, Escherichia coli
Method in brief: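 Inhibition of LF82/luciferase E. coli adhesion is read as luminescence after washing off unbound cells. Compound and bacteria (10^7 per well) are co-incubated 40-75 min at room temperature on wells coated with 0.5-2 μg/mL BSA-(Man)3, with BSA-only wells as background; IC50 values derived.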
For O=S1(=O)c2cc(C#C[C@H]3O[C@H](CO)[C@@H](O)[C@H](O)[C@@H]3O)ccc2-c2ccc(C#C[C@H]3O[C@H](CO)[C@@H](O)[C@H](O)[C@@H]3O)cc21 [Compound 161, (2R,3S,4R,5S,6R)-2-[2-[5,5-dioxo-7-[2-[(2R,3S,4R,5S,6R)-3,4,5-trihydroxy-6-(hydroxymethyl)tetrahydropyran-2-yl]ethynyl]dibenzothiophen-3-yl]ethynyl]-6-(hydroxymethyl)tetrahydropyran-3,4,5-triol], the IC50 was 12 nM. CC(C)OC(=O)c1c(C#C[C@H]2O[C@H](CO)[C@@H](O)[C@H](O)[C@@H]2O)ccc2c1C1(CCNCC1)c1cc(C#C[C@H]3O[C@H](CO)[C@@H](O)[C@H](O)[C@@H]3O)ccc1-2 [Compound 208] was tested, and the IC50 was 0.03 nM. In the case of O=C1CC[C@H](C(=O)c2c(C#C[C@H]3O[C@H](CO)[C@@H](O)[C@H](O)[C@@H]3O)ccc3c2C2(CCNCC2)c2cc(C#C[C@H]4O[C@H](CO)[C@@H](O)[C@H](O)[C@@H]4O)ccc2-3)N1 [Compound 243, (5R)-5-[2,7-bis[2-[(2R,3S,4R,5S,6R)-3,4,5-trihydroxy-6-(hydroxymethyl)tetrahydropyran-2-yl]ethynyl]spiro[fluorene-9,4piperidine]-1carbonyl]pyrrolidin-2-one], the IC50 is reported as 0.22 nM. Work on COC(=O)Cc1cc(-c2cccc([C@H]3O[C@H](CO)[C@@H](O)[C@H](O)[C@@H]3O)c2)ccc1-c1cccc([C@H]2O[C@H](CO)[C@@H](O)[C@H](O)[C@@H]2O)c1 [Compound 140, Methyl 2-[2,5-bis[3-[(2R,3S,4R,5S,6R)-3,4,5-trihydroxy-6-(hydroxymethyl)tetrahydropyran-2-yl]phenyl]phenyl]acetate] yielded an IC50 of 353 nM. OC[C@H]1O[C@H](C#Cc2ccc3oc4ccc(C#C[C@H]5O[C@H](CO)[C@@H](O)[C@H](O)[C@@H]5O)cc4c3c2)[C@@H](O)[C@@H](O)[C@@H]1O [Compound 106, (2R,3S,4R,5S,6R)-2-(hydroxymethyl)-6-[2-[8-[2-[(2R,3S,4R,5S,6R)-3,4,5-trihydroxy-6-(hydroxymethyl)tetrahydropyran-2-yl]ethynyl]dibenzofuran-2-yl]ethynyl]tetrahydropyran-3,4,5-triol] gave an IC50 of 7.9 nM. O=C(c1ccno1)c1c(C#C[C@H]2O[C@H](CO)[C@@H](O)[C@H](O)[C@@H]2O)ccc2c1C1(CCNCC1)c1cc(C#C[C@H]3O[C@H](CO)[C@@H](O)[C@H](O)[C@@H]3O)ccc1-2 [Compound 232, [2,7-bis[2-[(2R,3S,4R,5S,6R)-3,4,5-trihydroxy-6-(hydroxymethyl)tetrahydropyran-2-yl]ethynyl]spiro[fluorene-9,4piperidine]-1yl]-isoxazol-5-yl-methanone] gave an IC50 of 0.04 nM. Work on O=C(Cn1c2cc(C#C[C@H]3O[C@H](CO)[C@@H](O)[C@H](O)[C@@H]3O)ccc2c2ccc(C#C[C@H]3O[C@H](CO)[C@@H](O)[C@H](O)[C@@H]3O)cc21)NCCN1CCOCC1 [Compound 178, 2-[2,7-bis[2-[(2R,3S,4R,5S,6R)-3,4,5-trihydroxy-6-(hydroxymethyl)tetrahydropyran-2-yl]ethynyl]carbazol-9-yl]-N-(2-morpholinoethyl)acetamide] yielded an IC50 of 3.1 nM. CCc1cc(C#C[C@H]2O[C@H](CO)[C@@H](O)[C@H](O)[C@@H]2O)c(CC)cc1C#C[C@H]1O[C@H](CO)[C@@H](O)[C@H](O)[C@@H]1O [Compound 86, (2R,3S,4R,5S,6R)-2-[2-[2,5-diethyl-4-[2-[(2R,3S,4R,5S,6R)-3,4,5-trihydroxy-6-(hydroxymethyl)tetrahydropyran-2-yl]ethynyl]phenyl]ethynyl]-6-(hydroxymethyl)tetrahydropyran-3,4,5-triol] showed an IC50 of 22 nM. N#Cc1cc(C#C[C@H]2O[C@H](CO)[C@@H](O)[C@H](O)[C@@H]2O)ccc1C#C[C@H]1O[C@H](CO)[C@@H](O)[C@H](O)[C@@H]1O [Compound 101, 2,5-bis[2-[(2R,3S,4R,5S,6R)-3,4,5-trihydroxy-6-(hydroxymethyl)tetrahydropyran-2-yl]ethynyl]benzonitrile] was tested, and the IC50 was 21 nM. For OC[C@H]1O[C@H](C#Cc2ccc(C#C[C@H]3O[C@H](CO)[C@@H](O)[C@H](O)[C@@H]3O)s2)[C@@H](O)[C@@H](O)[C@@H]1O [Compound 138], the IC50 was 31 nM. Work on OC[C@H]1O[C@H](c2ccc(C#C[C@H]3O[C@H](CO)[C@@H](O)[C@H](O)[C@@H]3O)cc2)[C@@H](O)[C@@H](O)[C@@H]1O [Compound 141, (2R,3S,4R,5S,6R)-2-(hydroxymethyl)-6-[2-[4-[(2R,3S,4R,5S,6R)-3,4,5-trihydroxy-6-(hydroxymethyl)tetrahydropyran-2-yl]phenyl]ethynyl]tetrahydropyran-3,4,5-triol] yielded an IC50 of 340 nM. For CCOC(=O)c1c(C#C[C@H]2O[C@H](CO)[C@@H](O)[C@H](O)[C@@H]2O)ccc2c1C1(CCNCC1)c1cc(C#C[C@H]3O[C@H](CO)[C@@H](O)[C@H](O)[C@@H]3O)ccc1-2 [Compound 209, ethyl 2,7-bis[2-[(2R,3S,4R,5S,6R)-3,4,5-trihydroxy-6-(hydroxymethyl)tetrahydropyran-2-yl]ethynyl]spiro[fluorene-9,4 piperidine]-1 carboxylate], the IC50 was 0.07 nM. For O=C(Cn1c2cc(C#C[C@H]3O[C@H](CO)[C@@H](O)[C@H](O)[C@@H]3O)ccc2c2ccc(C#C[C@H]3O[C@H](CO)[C@@H](O)[C@H](O)[C@@H]3O)cc21)N1CCOCC1 [Compound 180, 2-[2,7-bis[2-[(2R,3S,4R,5S,6R)-3,4,5-trihydroxy-6-(hydroxymethyl)tetrahydropyran-2-yl]ethynyl]carbazol-9-yl]-1-morpholino-ethanone], the IC50 was 5.5 nM. OC[C@H]1O[C@H](C#Cc2ccc3c(c2)C(O)(CC2CCCC2)c2cc(C#C[C@H]4O[C@H](CO)[C@@H](O)[C@H](O)[C@@H]4O)ccc2-3)[C@@H](O)[C@@H](O)[C@@H]1O (stereo partly drawn) [Compound 214, (2R,3S,4R,5S,6R)-2-[2-[9-(cyclopentylmethyl)-9-hydroxy-7-[2-[(2R,3S,4R,5S,6R)-3,4,5-trihydroxy-6-(hydroxymethyl)tetrahydropyran-2-yl]ethynyl]fluoren-2-yl]ethynyl]-6-(hydroxymethyl)tetrahydropyran-3,4,5-triol] gave an IC50 of 0.45 nM. Molecule O=C(c1c(C#C[C@H]2O[C@H](CO)[C@@H](O)[C@H](O)[C@@H]2O)ccc2c1C1(CCNCC1)c1cc(C#C[C@H]3O[C@H](CO)[C@@H](O)[C@H](O)[C@@H]3O)ccc1-2)C1CCC1 [Compound 226, [2,7-bis[2-[(2R,3S,4R,5S,6R)-3,4,5-trihydroxy-6-(hydroxymethyl)tetrahydropyran-2-yl]ethynyl]spiro[fluorene-9,4piperidine]-1yl]-cyclobutyl-methanone] has an IC50 of 0.06 nM. Cc1cc(C#C[C@H]2O[C@H](CO)[C@@H](O)[C@H](O)[C@@H]2O)c(C)cc1C#C[C@H]1O[C@H](CO)[C@@H](O)[C@H](O)[C@@H]1O [Compound 97, (2R,3S,4R,5S,6R)-2-[2-[2,5-dimethy1-4-[2-[(2R,3S,4R,5S,6R)-3,4,5-trihydroxy-6-(hydroxymethyl)tetrahydropyran-2-yl]ethynyl]phenyl]ethynyl]-6-(hydroxymethyl)tetrahydropyran-3,4,5-triol] showed an IC50 of 24 nM. Molecule COc1cccc(C2(O)c3cc(C#C[C@H]4O[C@H](CO)[C@@H](O)[C@H](O)[C@@H]4O)ccc3-c3ccc(C#C[C@H]4O[C@H](CO)[C@@H](O)[C@H](O)[C@@H]4O)cc32)c1 [Compound 170, (2R,3S,4R,5S,6R)-2-[2-[9-hydroxy-9-(3-methoxyphenyl)-7-[2-[(2R,3S,4R,5S,6R)-3,4,5-trihydroxy-6-(hydroxymethyl)tetrahydropyran-2-yl]ethynyl]fluoren-2-yl]ethynyl]-6-(hydroxymethyl)tetrahydropyran-3,4,5-triol] has an IC50 of 7.5 nM. Cc1c(C#C[C@H]2O[C@H](CO)[C@@H](O)[C@H](O)[C@@H]2O)ccc(C#C[C@H]2O[C@H](CO)[C@@H](O)[C@H](O)[C@@H]2O)c1C [Compound 99, (2R,3S,4R,5S,6R)-2-[2-[2,3-dimethy1-4-[2-[(2R,3S,4R,5S,6R)-3,4,5-trihydroxy-6-(hydroxymethyl)tetrahydropyran-2-yl]ethynyl]phenyl]ethynyl]-6-(hydroxymethyl)tetrahydropyran-3,4,5-triol] gave an IC50 of 145 nM. In the case of CC1(Cn2c3cc(C#C[C@H]4O[C@H](CO)[C@@H](O)[C@H](O)[C@@H]4O)ccc3c3ccc(C#C[C@H]4O[C@H](CO)[C@@H](O)[C@H](O)[C@@H]4O)cc32)COC1 [Compound 186], the IC50 is reported as 0.28 nM. Work on OCC(O)Cn1c2ccc(C#C[C@H]3O[C@H](CO)[C@@H](O)[C@H](O)[C@@H]3O)cc2c2cc(C#C[C@H]3O[C@H](CO)[C@@H](O)[C@H](O)[C@@H]3O)ccc21 (stereo partly drawn) [Compound 174, (2R,3S,4R,5S,6R)-2-[2-[9-(2,3-dihydroxypropyl)-6-[2-[(2R,3S,4R,5S,6R)-3,4,5-trihydroxy-6-(hydroxymethyl)tetrahydropyran-2-yl]ethynyl]carbazol-3-yl]ethynyl]-6-(hydroxymethyl)tetrahydropyran-3,4,5-triol] yielded an IC50 of 4.7 nM. Work on COc1cc([C@H]2O[C@H](CO)[C@@H](O)[C@H](O)[C@@H]2O)ccc1C#C[C@H]1O[C@H](CO)[C@@H](O)[C@H](O)[C@@H]1O [Compound 145] yielded an IC50 of 430 nM. CCOC(=O)Cn1c2cc(C#C[C@H]3O[C@H](CO)[C@@H](O)[C@H](O)[C@@H]3O)ccc2c2ccc(C#C[C@H]3O[C@H](CO)[C@@H](O)[C@H](O)[C@@H]3O)cc21 [Compound 175, ethyl 2-[2,7-bis[2-[(2R,3S,4R,5S,6R)-3,4,5-trihydroxy-6-(hydroxymethyl)tetrahydropyran-2-yl]ethynyl]carbazol-9-yl]acetate] gave an IC50 of 6.5 nM. Cc1cc(C#C[C@H]2O[C@H](CO)[C@@H](O)[C@H](O)[C@@H]2O)ccc1[C@H]1O[C@H](CO)[C@@H](O)[C@H](O)[C@@H]1O [Compound 142] showed an IC50 of 91 nM. Cn1cc(C(=O)c2c(C#C[C@H]3O[C@H](CO)[C@@H](O)[C@H](O)[C@@H]3O)ccc3c2C2(CCNCC2)c2cc(C#C[C@H]4O[C@H](CO)[C@@H](O)[C@H](O)[C@@H]4O)ccc2-3)cn1 [Compound 245, [2,7-bis[2-[(2R,3S,4R,5S,6R)-3,4,5-trihydroxy-6-(hydroxymethyl)tetrahydropyran-2-yl]ethynyl]spiro[fluorene-9,4piperidine]-1yl]-(1-methylpyrazol-4-yl)methanone] was tested, and the IC50 was 0.14 nM.
